Where a SMILES comes first, the peptide text is derived from it.
What was measured:
[1] = system: Balb/c (H2^bxd) mice; test: Activity of HTL epitopes, ELISPOT of CD4+ cells, pooled samples; type: in vivo, mouse; conditions: Table 27, 2 experiments
Procedure: (§1) The experiments to test the immunogenicity of HLA-DR peptides differs slightly from example 6 in that complete Freund's is used as the adjuvant. Peptides are tested in either DRB1*0401-Tg mice or surrogate mice such as Balb/c and CBA. In this particular example, HLA-restricted peptide responses are analyzed in pooled samples.

[2] = system: DRB1*0401-Tg mice (DR4 Tg); test: as above; type: in vivo, mouse; conditions: Table 26, 2 experiments
Procedure: as §1

CC[C@H](C)[C@H](NC(=O)CNC(=O)[C@@H](NC(=O)[C@H](C)N)C(C)C)C(=O)N[C@@H](Cc1ccccc1)C(=O)N[C@@H](CCCNC(=N)N)C(=O)N[C@@H](C)C(=O)N[C@@H](C)C(=O)N[C@H](C(=O)N[C@@H](CS)C(=O)N[C@H](C(=O)N[C@@H](CCCNC(=N)N)C(=O)NCC(=O)N[C@H](C(=O)N[C@@H](C)C(=O)O)C(C)C)[C@@H](C)O)C(C)C
Immunized SFC/10^6 ± St Error [1]: 1330.4 ± 111.9 SFC/10^6

CC(C)C[C@H](NC(=O)[C@@H](NC(=O)[C@@H](NC(=O)[C@@H](N)CC(C)C)C(C)C)C(C)C)C(=O)N[C@@H](C)C(=O)N[C@H](C(=O)N[C@@H](C)C(=O)N[C@H](C(=O)N1CCC[C@H]1C(=O)N1CCC[C@H]1C(=O)NCC(=O)N[C@@H](CO)C(=O)N[C@H](C(=O)N[C@H](C(=O)N[C@H](C(=O)O)C(C)C)[C@@H](C)O)C(C)C)[C@@H](C)O)[C@@H](C)O (H-LVVLATATPPGSVTV-OH; N-terminus and C-terminus assumed)
Immunized SFC/10^6 ± St Error [2]: 111.7 ± 42.3 SFC/10^6

Reference: patent US20100099613A1, “PEPTIDES FOR INDUCING A CTL AND/OR HTL RESPONSE TO HEPATITIS C VIRUS” (GENIMMUNE, priority 2004, published 2010)
